We go through 28 molecules from patent US20130060013A1, “Compounds useful for treating neurodegenerative disorders” (SATORI PHARMACEUTICALS, INC., priority 2011, published 2013).

The structures appear in SMILES notation. Where only a bound is given, the exact number is not on record here.

The test system of one assay is Aβ-42. Nature of the assay: Aβ-42 level in conditioned media of 2B7 cells (MSD 3-PLEX ELISA). The conditions noted are these: Homo sapiens, compound 5 hours at 37° C., 1% DMSO, percent vehicle fit to 4 parameter curve. It is filed as cell-based. As for the experimental part:
(§1) Assays were conducted to determine the ability of a Compound of Formula I to modulate […], and Aβ-38.
(§2) Plates with capture antibodies were blocked for 1-2 hours at room temperature with 150 μL of the manufactures blocking reagent.
(§3) Cultured 2B7 cells in 96 well plate with 250 uL of media per well until confluent;
(§4) Prepared serial dilutions of compounds in DMSO at 100× the final desired concentration;
(§5) Washed wells with 2B7 cells 1× with 250 uL of media;
(§6) Diluted DMSO stocks 1:100 into media:
(§7) Added 250 μL of media containing compounds (1% DMSO) to wells with 2B7 cells for 5 hours at 37° C.
(§8) Diluted conditioned media: 1 part media with 1% DMSO and 1 part blocking buffer;
(§9) 150 μL of the 250 μL of conditioned media were used.
(§10) Standard Curve Sample Prep:
(§11) Prepared per manufacturer's protocol (see above)
(§12) Seven point standard curve samples were prepared that contained Aβ-42, Aβ-40, and Aβ-38. The highest concentration of Aβ-42 and Aβ-38 was 3,000 pg/mL and the highest concentration of Aβ-40 was 10,000 pg/mL. Subsequent serial dilutions were 1:3 and the final composition of each sample was 1 part blocking buffer and 1 part cell medium containing 1% DMSO.
(§13) Overnight Sample Incubation:
(§14) Blocked plates are washed 5× with MSD wash buffer with a plate washer
(§15) 25 uL of detection antibody and blocker G reagent in MSD blocking solution is added
(§16) 25 uL of samples (1 part conditioned media containing 1% DMSO and 1 part MSD blocking buffer) are then added.
(§17) plates are incubated overnight at 4 degrees C. or 2 hours at room temp
(§18) Wash wells 5× with MSD wash buffer
(§19) Added 150 μL 2×MSD read buffer
(§20) A-Beta peptide levels for each peptide are calculated from the standard curve using the MSD software provided with the MSD 2400 Imager. Percent vehicle values for each compound dosage were then calculated and fit to a 4 parameter curve generating IC50 values.
(An ELISA detects its analyte on a solid surface through an enzyme-linked reagent.)

A further assay concerns Aβ-38. Nature of the assay: Aβ-38 level in conditioned media of 2B7 cells (MSD 3-PLEX ELISA). To be noted: Homo sapiens, compound 5 hours at 37° C., 1% DMSO, percent vehicle fit to 4 parameter curve. It is filed as cell-based. As to the method:
as §1, §2, §3, §4, §5, §6, §7, §8, §9, §10, §11, §12, §13, §14, §15, §16, §17, §18, §19, §20

What is called IC50 is the point on the concentration scale where inhibition reaches its midpoint. The low end stands for greater potency, the high end for weaker potency. Consider `CC(C)[C@@H](OC(=O)N1CCC1)[C@H]1C[C@@H](C)[C@H]2[C@H](O1)[C@H](O)[C@@]1(C)[C@@H]3CC[C@H]4C(C)(C)[C@@H](O[C@H]5CN(C(=O)CNS(=O)(=O)C(F)(F)F)CCO5)CCC45C[C@@]35CC[C@]21C` (stereo partly drawn), for which the IC50 with Aβ-42 was 1000 to 10000 nM; with Aβ-38 it was < 1000 nM.

For `CO[C@@H]([C@H]1C[C@@H](C)[C@H]2[C@H](O1)[C@H](O)[C@@]1(C)[C@@H]3CC[C@H]4C(C)(C)[C@@H](O[C@H]5CN(C6(C)COC6)CCO5)CCC45C[C@@]35CC[C@]21C)C(C)(C)O` (stereo partly drawn), the IC50 in the assay with Aβ-42 and in the assay with Aβ-38 was 1000 to 10000 nM throughout.

Consider `CCO[C@@H]([C@H]1C[C@@H](C)[C@H]2[C@H](O1)[C@H](O)[C@@]1(C)[C@@H]3CC[C@H]4C(C)(C)[C@@H](O[C@H]5CN([C@H](C)C(=O)N(C)C)CCO5)CCC45C[C@@]35CC[C@]21C)C(C)(C)O` (stereo partly drawn), for which the IC50 in the assay with Aβ-42 and with Aβ-38 was < 1000 nM throughout.

`CCO[C@@H]([C@H]1C[C@@H](C)[C@H]2[C@H](O1)[C@H](O)[C@]1(C)[C@@H]3CC[C@H]4C(C)(C)[C@@H](O[C@H]5CN([C@H](C)C(=O)N6CCC6)CCO5)CC[C@@]45C[C@@]35CC[C@@]21C)C(C)(C)O`: the 50% inhibitory concentration (IC50) in the assay with Aβ-42 and in the assay with Aβ-38 was < 1000 nM throughout.

For `CCO[C@@H]([C@@H]1C[C@H]2[C@H]([C@H](C)C1)[C@@]1(C)CCC34C[C@@]35CC[C@H](O[C@H]3CN([C@@H](C)C(=O)N(C)C)CCO3)C(C)(C)[C@@H]5CC[C@H]4[C@]1(C)[C@H]2O)C(C)(C)O` (stereo partly drawn), the 50% inhibitory concentration (IC50) with Aβ-42 was < 1000 nM.

With `CCO[C@@H]([C@H]1C[C@@H](C)[C@H]2[C@H](O1)[C@H](O)[C@]1(C)[C@@H]3CC[C@H]4C(C)(C)[C@@H](O[C@H]5CN([C@H](C)CN6CCC6)CCO5)CC[C@@]45C[C@@]35CC[C@@]21C)C(C)(C)O`, the 50% inhibitory concentration (IC50) in the assay with Aβ-42 and in the assay with Aβ-38 was < 1000 nM throughout.

Take `CO[C@@H](C1C[C@@H](C)[C@H]2C(O1)[C@H](O)[C@@]1(C)C3CC[C@H]4C(C)(C)[C@@H](O[C@H]5CN(CCN6CCC6)CCO5)CCC45C[C@@]35CC[C@]21C)C(C)(C)O` (stereo partly drawn): the IC50 with Aβ-42 was < 1000 nM.

For `CCO[C@@H](C1C[C@@H](C)[C@H]2C(O1)[C@H](O)[C@@]1(C)C3CC[C@H]4C(C)(C)[C@@H](O[C@H]5CN(Cc6ncco6)CCO5)CCC45C[C@@]35CC[C@]21C)C(C)(C)O` (stereo partly drawn), the IC50 was < 1000 nM in the assay with Aβ-42 and 1000 to 10000 nM in the assay with Aβ-38.

For the molecule `CCO[C@@H](C1C[C@@H](C)[C@H]2C(O1)[C@H](O)[C@@]1(C)C3CC[C@H]4C(C)(C)[C@@H](O[C@H]5CN(c6ncc(F)cn6)CCO5)CCC45C[C@@]35CC[C@]21C)C(C)(C)O` (stereo partly drawn), the 50% inhibitory concentration (IC50) with Aβ-42 and in the assay with Aβ-38 was 1000 to 10000 nM throughout.

Consider `CCO[C@@H]([C@H]1C[C@@H](C)[C@H]2[C@H](O1)[C@H](O)[C@@]1(C)[C@@H]3CC[C@H]4C(C)(C)[C@@H](O[C@H]5CN(Cc6nccn6C)CCO5)CCC45C[C@@]35CC[C@]21C)C(C)(C)O` (stereo partly drawn), for which the IC50 with Aβ-42 was < 1000 nM; in the assay on Aβ-38, 1000 to 10000 nM.

As for `CCO[C@@H]([C@H]1C[C@@H](C)[C@H]2[C@H](O1)[C@H](O)[C@@]1(C)[C@@H]3CC[C@H]4C(C)(C)[C@@H](O[C@H]5CN(CC(F)(F)F)CCO5)CCC45C[C@@]35CC[C@]21C)C(C)(C)O` (stereo partly drawn), the IC50 with Aβ-42 and with Aβ-38 was 1000 to 10000 nM in each case.

`CCO[C@@H]([C@H]1C[C@@H](C)[C@H]2[C@H](O1)[C@H](O)[C@@]1(C)[C@@H]3CC[C@H]4C(C)(C)[C@@H](O[C@H]5CN(c6ncccn6)CCO5)CCC45C[C@@]35CC[C@]21C)C(C)(C)O` (stereo partly drawn): the IC50 in the assay on Aβ-42 and in the assay on Aβ-38 was 1000 to 10000 nM in each case.

Consider `CCO[C@@H]([C@H]1C[C@@H](C)[C@H]2[C@H](O1)[C@H](O)[C@@]1(C)[C@@H]3CC[C@H]4C(C)(C)[C@@H](O[C@H]5CN(CC(F)F)CCO5)CCC45C[C@@]35CC[C@]21C)C(C)(C)O` (stereo partly drawn), for which the figures for the IC50 in the assay on Aβ-42 and in the assay with Aβ-38 were < 1000 nM and 1000 to 10000 nM, respectively.

Consider `CCO[C@@H]([C@H]1C[C@@H](C)[C@H]2[C@H](O1)[C@H](O)[C@@]1(C)[C@@H]3CC[C@H]4C(C)(C)[C@@H](OC(=O)C5CN(C6COC6)C5)CCC45C[C@@]35CC[C@]21C)C(C)(C)O` (stereo partly drawn), for which the IC50 was < 1000 nM in the assay with Aβ-42 and 1000 to 10000 nM with Aβ-38.

Take `CCO[C@@H]([C@H]1C[C@@H](C)[C@H]2[C@H](O1)[C@H](O)[C@@]1(C)[C@@H]3CC[C@H]4C(C)(C)[C@@H](OC(=O)[C@H]5CN(C)CCO5)CCC45C[C@@]35CC[C@]21C)C(C)(C)O` (stereo partly drawn): the IC50 with Aβ-42 is < 1000 nM; in the assay on Aβ-38, 1000 to 10000 nM.

`CCO[C@@H]([C@H]1C[C@@H](C)[C@H]2[C@H](O1)[C@H](O)[C@@]1(C)[C@@H]3CC[C@H]4C(C)(C)[C@@H](OC(=O)[C@@H]5CN(C)CCO5)CC[C@@]45C[C@@]35CC[C@]21C)C(C)(C)O`: the IC50 with Aβ-42 is < 1000 nM; in the assay on Aβ-38, 1000 to 10000 nM.

On to `CCO[C@@H]([C@H]1C[C@@H](C)[C@H]2[C@H](O1)[C@H](O)[C@@]1(C)[C@@H]3CC[C@H]4C(C)(C)[C@@H](OC(=O)[C@@H]5CCCN5C(=O)OC(C)(C)C)CCC45C[C@@]35CC[C@]21C)C(C)(C)O` (stereo partly drawn), for which the IC50 with Aβ-42 and in the assay with Aβ-38 was 1000 to 10000 nM throughout.

For the molecule `CCO[C@@H]([C@H]1C[C@@H](C)[C@H]2[C@H](O1)[C@H](O)[C@@]1(C)[C@@H]3CC[C@H]4C(C)(C)[C@@H](OC(=O)[C@H]5CN(C(=O)OC(C)(C)C)CCO5)CCC45C[C@@]35CC[C@]21C)C(C)(C)O` (stereo partly drawn), the IC50 with Aβ-42 and with Aβ-38 was 1000 to 10000 nM each time.

Turning to `CCO[C@@H]([C@H]1C[C@@H](C)[C@H]2[C@H](O1)[C@H](O)[C@@]1(C)[C@@H]3CC[C@H]4C(C)(C)[C@@H](OC(=O)[C@H]5COCCN5C(=O)OC(C)(C)C)CCC45C[C@@]35CC[C@]21C)C(C)(C)O` (stereo partly drawn), the IC50 in the assay with Aβ-42 and with Aβ-38 was 1000 to 10000 nM in each case.

In the case of `CCO[C@@H]([C@H]1C[C@@H](C)[C@H]2[C@H](O1)[C@H](O)[C@@]1(C)[C@@H]3CC[C@H]4C(C)(C)[C@@H](OC(=O)[C@@H]5CN(C(=O)OC(C)(C)C)CCO5)CCC45C[C@@]35CC[C@]21C)C(C)(C)O` (stereo partly drawn), the IC50 with Aβ-42 and in the assay with Aβ-38 was < 1000 nM throughout.

For `CCO[C@@H]([C@H]1C[C@@H](C)[C@H]2[C@H](O1)[C@H](O)[C@@]1(C)[C@@H]3CC[C@H]4C(C)(C)[C@@H](OC(=O)[C@@H]5COCCN5C(=O)OC(C)(C)C)CCC45C[C@@]35CC[C@]21C)C(C)(C)O` (stereo partly drawn), the IC50 in the assay on Aβ-42 and in the assay with Aβ-38 was 1000 to 10000 nM throughout.

As to `CCO[C@@H]([C@H]1C[C@@H](C)[C@H]2[C@H](O1)[C@H](O)[C@@]1(C)[C@@H]3CC[C@H]4C(C)(C)[C@@H](O[C@H]5CN(C6CN(S(C)(=O)=O)C6)CCO5)CCC45C[C@@]35CC[C@]21C)C(C)(C)O` (stereo partly drawn), the IC50 in the assay with Aβ-42 and with Aβ-38 was < 1000 nM each time.

As for `CCO[C@@H]([C@H]1C[C@@H](C)[C@H]2[C@H](O1)[C@H](O)[C@@]1(C)[C@@H]3CC[C@H]4C(C)(C)[C@@H](OC(=O)[C@@H]5CNCCO5)CCC45C[C@@]35CC[C@]21C)C(C)(C)O` (stereo partly drawn), the IC50 with Aβ-42 and with Aβ-38 was < 1000 nM in each case.

With `CCO[C@@H]([C@H]1C[C@@H](C)[C@H]2[C@H](O1)[C@H](O)[C@@]1(C)[C@@H]3CC[C@H]4C(C)(C)[C@@H](OC(=O)[C@@H]5COCCN5CCOC)CCC45C[C@@]35CC[C@]21C)C(C)(C)O` (stereo partly drawn), the IC50 in the assay with Aβ-42 was < 1000 nM; in the assay on Aβ-38, 1000 to 10000 nM.

With `CCO[C@@H]([C@H]1C[C@@H](C)[C@H]2[C@H](O1)[C@H](O)[C@@]1(C)[C@@H]3CC[C@H]4C(C)(C)[C@@H](OC(=O)[C@H]5COCCN5C(C)C)CCC45C[C@@]35CC[C@]21C)C(C)(C)O` (stereo partly drawn), the IC50 with Aβ-42 was < 1000 nM; in the assay with Aβ-38, 1000 to 10000 nM.

For the molecule `CCO[C@@H]([C@H]1C[C@@H](C)[C@H]2[C@H](O1)[C@H](O)[C@@]1(C)[C@@H]3CC[C@H]4C(C)(C)[C@@H](O[C@H]5CN(C(CO)CO)CCO5)CCC45C[C@@]35CC[C@]21C)C(C)(C)O` (stereo partly drawn), the IC50 in the assay with Aβ-42 and in the assay on Aβ-38 was < 1000 nM in each case.

As for `C[C@@H]1C[C@H]([C@H](OCCO)C(C)(C)O)O[C@H]2[C@H]1[C@@]1(C)CC[C@@]34CC35CC[C@H](O[C@H]3CN(C6CN(C7COC7)C6)CCO3)C(C)(C)[C@@H]5CC[C@H]4[C@]1(C)[C@H]2O` (stereo partly drawn), the IC50 in the assay on Aβ-42 and in the assay with Aβ-38 was 1000 to 10000 nM throughout.

Turning to `CCO[C@@H]([C@H]1C[C@@H](C)[C@H]2[C@H](O1)[C@H](O)[C@@]1(C)[C@@H]3CC[C@H]4C(C)(C)C(O[C@H]5CN(CCNCCNC(=O)CCC6(C)N=N6)CCO5)CC[C@@]45CC35CC[C@]21C)C(C)(C)O` (stereo partly drawn), the IC50 in the assay on Aβ-42 was < 1000 nM; in the assay with Aβ-38, 1000 to 10000 nM.
